From PMC3109356 (Bioorganic & medicinal chemistry letters, 2011)

Columns and labels:
Assay type in all cases: binding
[1] = target: MshC (Mycobacterium tuberculosis, UniProt P9WJM9); assay: isothermal titration calorimetry; conditions: ITC
[2] = target: MBP-MshC (Mycobacterium tuberculosis, UniProt P9WJM9); assay: NOESY / transferred NOESY in the presence of MBP-MshC; conditions: free in solution vs in the presence of MBP-MshC
[3] = target: M. tuberculosis MshC (MBP-MshC) (Mycobacterium tuberculosis, UniProt P9WJM9); assay: 1H STD NMR in the presence of MBP-MshC; conditions: for STD relative enhancement for H-2″ / STD relative enhancement for H-3″: normalized to adenine H-2, 20 μM MBP-MshC, 900 μM ligand
Sequence of M. tuberculosis MshC (MBP-MshC) (P9WJM9 whole entry): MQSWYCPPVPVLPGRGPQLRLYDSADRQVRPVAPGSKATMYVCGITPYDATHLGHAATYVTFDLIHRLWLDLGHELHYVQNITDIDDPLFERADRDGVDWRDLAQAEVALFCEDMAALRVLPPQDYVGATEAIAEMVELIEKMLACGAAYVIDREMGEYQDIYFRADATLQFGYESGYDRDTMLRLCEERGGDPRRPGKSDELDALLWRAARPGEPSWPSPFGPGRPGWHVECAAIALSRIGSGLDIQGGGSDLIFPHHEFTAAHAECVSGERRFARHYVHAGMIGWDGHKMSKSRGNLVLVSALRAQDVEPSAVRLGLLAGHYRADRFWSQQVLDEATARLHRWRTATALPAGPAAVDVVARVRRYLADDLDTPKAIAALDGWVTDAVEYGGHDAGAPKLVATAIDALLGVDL

[4] = target: soluble MBP tag (Escherichia coli, UniProt P0AEX9); assay: 1H STD NMR with soluble MBP tag as control

Sequence of MBP-MshC (P9WJM9 whole entry): as above
Sequence of MshC (P9WJM9 whole entry): as above

SMILES	heats of binding [1]	NOESY/trNOESY cross peaks (binding) [2]	signal-to-noise (S/N) ratio in the STD difference spectra ([3]; in the presence of MshC, reference spectra S/N 170)	STD relative enhancement for H-2″ [3]	STD relative enhancement for H-3″ [3]	binding to the soluble MBP tag [4]
Nc1ncnc2c1ncn2[C@@H]1O[C@H](COS(=O)(=O)NC(=O)[C@@H](N)CC(=O)O)[C@@H](O)[C@H]1O [Compound 3]	No heats of binding were detected	did not contain any cross peaks	20	12%	no effect could be observed	No binding was observed
Nc1ncnc2c1ncn2[C@@H]1O[C@H](COS(=O)(=O)NC(=O)[C@@H](N)CS)[C@@H](O)[C@H]1O [Compound 1, 5′-O-[N-(L-cysteinyl)sulfamoyl] adenosine]	–	cross peaks changed in sign from positive to negative	–	21%	10%	No binding was observed
